Where “and” joins values, the source holds several entries; their conditions need not be identical. Equal values may be shown once.
Test system: BDF1 mice, Adenocarcinoma 755 s.c., tumor weight T/C
Test: NCI In Vivo Anticancer Drug Screen. Data for tumor model Adenocarcinoma 755 (subcutaneous) in B6D2F1 (BDF1) mice
Conditions: endpoint: mean tumor weight, higher = larger tumour
In short: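 Tumor-bearing mice receive test compound while controls get vehicle alone. Antitumor effect is scored from survival or tumor dimensions as a T/C quotient.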

[1] = dose: 6.0 mg/kg/injection, schedule: Q01DX011 (ip), vehicle: methylcellulose (MC)

## Cc1cccc(N=Nc2c(S(=O)(=O)O)cc3cc(NC(=O)Nc4ccc5c(O)c(N=Nc6ccc7cc(S(=O)(=O)O)ccc7c6)c(S(=O)(=O)O)cc5c4)ccc3c2O)c1
dose: 45.0 mg/kg/injection, schedule: Q01DX011 (ip), vehicle: carboxymethylcellulose (CMC)
  T/C: 81 % of control

## C[C@]12C[C@H](O)[C@H]3[C@@H](CCC4=CC(=O)CC[C@@]43C)[C@@H]1CC[C@@H]2C(=O)CO
dose: 10.0 mg/kg/injection, schedule: Q01DX011 (ip), vehicle: steriod suspending solution
  T/C: 110 % of control
dose: 10.0 mg/kg/injection, schedule: Q01DX011 (sc), vehicle: steriod suspending solution
  T/C: 79 % of control
dose: 20.0 mg/kg/injection, schedule: Q01DX011 (ip), vehicle: steriod suspending solution
  T/C: 103 % of control
dose: 20.0 mg/kg/injection, schedule: Q01DX011 (sc), vehicle: steriod suspending solution
  T/C: 84 % of control
dose: 40.0 mg/kg/injection, schedule: Q01DX011 (im), vehicle: steriod suspending solution
  T/C: 67 % of control
dose: 40.0 mg/kg/injection, schedule: Q01DX011 (ip), vehicle: steriod suspending solution
  T/C: 81 % of control
dose: 40.0 mg/kg/injection, schedule: Q01DX011 (iv), vehicle: steriod suspending solution
  T/C: 87 % of control
dose: 40.0 mg/kg/injection, schedule: Q01DX011 (sc), vehicle: steriod suspending solution
  T/C: 64 % of control
dose: 50.0 mg/kg/injection, schedule: Q#A X022 (sc), vehicle: steriod suspending solution
  T/C: 20 % of control
dose: 80.0 mg/kg/injection, schedule: Q01DX011 (im), vehicle: steriod suspending solution
  T/C: 49 % of control
dose: 80.0 mg/kg/injection, schedule: Q01DX011 (ip), vehicle: steriod suspending solution
  T/C: 95 % of control
dose: 80.0 mg/kg/injection, schedule: Q01DX011 (iv), vehicle: steriod suspending solution
  T/C: 64 % of control
dose: 80.0 mg/kg/injection, schedule: Q01DX011 (oral), vehicle: steriod suspending solution
  T/C: 58 % of control
dose: 80.0 mg/kg/injection, schedule: Q01DX011 (sc), vehicle: steriod suspending solution
  T/C: 51 % of control
dose: 100.0 mg/kg/injection, schedule: Q01DX011 (oral), vehicle: steriod suspending solution
  T/C: 38 % of control
dose: 100.0 mg/kg/injection, schedule: Q#A X022 (sc), vehicle: steriod suspending solution
  T/C: 8 % of control
dose: 150.0 mg/kg/injection, schedule: Q03DX004 (sc), vehicle: steriod suspending solution
  T/C: 51 % of control
dose: 160.0 mg/kg/injection, schedule: Q01DX011 (im), vehicle: steriod suspending solution
  T/C: 30 % of control
dose: 160.0 mg/kg/injection, schedule: Q01DX011 (ip), vehicle: steriod suspending solution
  T/C: 72 % of control
dose: 160.0 mg/kg/injection, schedule: Q01DX011 (iv), vehicle: steriod suspending solution
  T/C: 42 % of control
dose: 160.0 mg/kg/injection, schedule: Q01DX011 (sc), vehicle: steriod suspending solution
  T/C: 31 % of control
dose: 175.0 mg/kg/injection, schedule: Q07DX002 (sc), vehicle: steriod suspending solution
  T/C: 104 % of control
dose: 300.0 mg/kg/injection, schedule: Q03DX004 (sc), vehicle: steriod suspending solution
  T/C: 24 % of control
dose: 320.0 mg/kg/injection, schedule: Q01DX011 (im), vehicle: steriod suspending solution
  T/C: 22 % of control
dose: 320.0 mg/kg/injection, schedule: Q01DX011 (ip), vehicle: steriod suspending solution
  T/C: 42 % of control
dose: 320.0 mg/kg/injection, schedule: Q01DX011 (oral), vehicle: steriod suspending solution
  T/C: 38 % of control
dose: 320.0 mg/kg/injection, schedule: Q01DX011 (sc), vehicle: steriod suspending solution
  T/C: 16 % of control
dose: 350.0 mg/kg/injection, schedule: Q07DX002 (sc), vehicle: steriod suspending solution
  T/C: 58 % of control
dose: 400.0 mg/kg/injection, schedule: Q01DX011 (oral), vehicle: steriod suspending solution
  T/C: 22 % of control
dose: 600.0 mg/kg/injection, schedule: Q03DX004 (sc), vehicle: steriod suspending solution
  T/C: 9 % of control
dose: 640.0 mg/kg/injection, schedule: Q01DX011 (oral), vehicle: steriod suspending solution
  T/C: 17 % of control and 18 % of control
dose: 700.0 mg/kg/injection, schedule: Q07DX002 (sc), vehicle: steriod suspending solution
  T/C: 20 % of control
dose: 1200.0 mg/kg/injection, schedule: Q03DX004 (sc), vehicle: steriod suspending solution
  T/C: 5 % of control
dose: 1400.0 mg/kg/injection, schedule: Q07DX002 (sc), vehicle: steriod suspending solution
  T/C: 16 % of control

## N#Cc1ccc(Nc2cc(Cl)nc(N)n2)cc1
dose: 15.0 mg/kg/injection, schedule: Q01DX011 (ip), vehicle: methylcellulose (MC)
  T/C: 89 % of control
dose: 31.0 mg/kg/injection, schedule: Q01DX011 (ip), vehicle: methylcellulose (MC)
  T/C: 87 % of control
dose: 62.0 mg/kg/injection, schedule: Q01DX011 (ip), vehicle: methylcellulose (MC)
  T/C: 50 % of control
dose: 125.0 mg/kg/injection, schedule: Q01DX011 (ip), vehicle: methylcellulose (MC)
  T/C: 97 % of control
dose: 250.0 mg/kg/injection, schedule: Q01DX011 (ip), vehicle: methylcellulose (MC)
  T/C: 65 % of control

## CN[C@H]1CCc2cc(OC)c(OC)c(OC)c2-c2ccc(OC)c(=O)cc21
dose: 0.75 mg/kg/injection, schedule: Q01DX011 (ip), vehicle: methylcellulose (MC)
  T/C: 44 % of control
dose: 1.5 mg/kg/injection, schedule: Q01DX011 (ip), vehicle: methylcellulose (MC)
  T/C: 60 % of control
dose: 3.0 mg/kg/injection, schedule: Q01DX011 (ip), vehicle: methylcellulose (MC)
  T/C: 56 % of control
[1]
  T/C: 7 % of control

## Nc1nc(SCc2ccc(Br)cc2)c2ncn(C3OC(CO)C(O)C3O)c2n1 (centres undefined)
[1]
  T/C: 80 % of control
dose: 25.0 mg/kg/injection, schedule: Q01DX011 (ip), vehicle: methylcellulose (MC)
  T/C: 32 % of control
dose: 30.0 mg/kg/injection, schedule: Q01DX011 (ip), vehicle: methylcellulose (MC)
  T/C: 41 % of control
dose: 75.0 mg/kg/injection, schedule: Q01DX011 (ip), vehicle: methylcellulose (MC)
  T/C: 5 % of control

## CCOC(=O)CCCc1ccc(N=NN(C)C(C)CC)cc1 (centres undefined)
dose: 62.0 mg/kg/injection, schedule: Q01DX011 (ip), vehicle: carboxymethylcellulose (CMC)
  T/C: 64 % of control
dose: 125.0 mg/kg/injection, schedule: Q01DX011 (ip), vehicle: carboxymethylcellulose (CMC)
  T/C: 71 % of control
dose: 250.0 mg/kg/injection, schedule: Q01DX011 (ip), vehicle: carboxymethylcellulose (CMC)
  T/C: 14 % of control

## O=P(N1CC=CCC1)(N1CC1)N1CC1
dose: 0.03 mg/kg/injection, schedule: Q01DX011 (ip), vehicle: saline
  T/C: 75 % of control
dose: 0.05 mg/kg/injection, schedule: Q01DX011 (ip), vehicle: saline
  T/C: 81 % of control
dose: 0.1 mg/kg/injection, schedule: Q01DX011 (ip), vehicle: saline
  T/C: 114 % of control
dose: 0.2 mg/kg/injection, schedule: Q01DX011 (ip), vehicle: saline
  T/C: 100 % of control
dose: 25.0 micrograms/kg/injection, schedule: Q01DX011 (ip), vehicle: saline
  T/C: 120 % of control
dose: 50.0 micrograms/kg/injection, schedule: Q01DX011 (ip), vehicle: saline
  T/C: 94 % of control
dose: 100.0 micrograms/kg/injection, schedule: Q01DX011 (ip), vehicle: saline
  T/C: 114 % of control
dose: 200.0 micrograms/kg/injection, schedule: Q01DX011 (ip), vehicle: saline
  T/C: 106 % of control

## O=S(=O)(OCCCl)OCCCl
dose: 12.5 mg/kg/injection, schedule: Q01DX011 (ip), vehicle: olive oil, sesame oil, peanut oil
  T/C: 109 % of control
dose: 25.0 mg/kg/injection, schedule: Q01DX011 (ip), vehicle: olive oil, sesame oil, peanut oil
  T/C: 86 % of control

## c1ccc(CNc2ncnc3[nH]ncc23)cc1
dose: 4.0 mg/kg/injection, schedule: Q01DX011 (ip), vehicle: carboxymethylcellulose (CMC)
  T/C: 83 % of control
dose: 8.0 mg/kg/injection, schedule: Q01DX011 (ip), vehicle: carboxymethylcellulose (CMC)
  T/C: 69 % of control
dose: 16.0 mg/kg/injection, schedule: Q01DX011 (ip), vehicle: carboxymethylcellulose (CMC)
  T/C: 22 % of control
dose: 31.25 mg/kg/injection, schedule: Q01DX011 (ip), vehicle: carboxymethylcellulose (CMC)
  T/C: 54 % of control

## CS(=O)(=O)OCCCl
dose: 20.88 mg/kg/injection, schedule: Q01DX011 (ip), vehicle: carboxymethylcellulose (CMC)
  T/C: 80 % of control
dose: 28.73 mg/kg/injection, schedule: Q01DX011 (ip), vehicle: carboxymethylcellulose (CMC)
  T/C: 80 % of control
dose: 40.25 mg/kg/injection, schedule: Q01DX011 (ip), vehicle: carboxymethylcellulose (CMC)
  T/C: 52 % of control
dose: 41.75 mg/kg/injection, schedule: Q01DX011 (ip), vehicle: carboxymethylcellulose (CMC)
  T/C: 117 % of control
dose: 83.5 mg/kg/injection, schedule: Q01DX011 (ip), vehicle: carboxymethylcellulose (CMC)
  T/C: 97 % of control
dose: 114.9 mg/kg/injection, schedule: Q01DX011 (ip), vehicle: carboxymethylcellulose (CMC)
  T/C: 88 % of control and 103 % of control
dose: 130.0 mg/kg/injection, schedule: Q01DX011 (ip), vehicle: carboxymethylcellulose (CMC)
  T/C: 54 % of control
dose: 140.0 mg/kg/injection, schedule: Q01DX011 (ip), vehicle: carboxymethylcellulose (CMC)
  T/C: 21 % of control
dose: 150.0 mg/kg/injection, schedule: Q01DX011 (ip), vehicle: carboxymethylcellulose (CMC)
  T/C: 11 % of control

Source: PubChem BioAssay AID180 (DTP/NCI, 2004)
